Values quoted from earlier work, collected in patent US20050004032A1, “Collagen mimics” (priority 2003, published 2005).

Substance	Tm, temperature at the midpoint of the thermal transition as measured by CD spectroscopy (literature values per Table 1 footnotes b-f, some reported for the 10-repeat peptides)	melting temperature of a triple helix (Sakakibara et al. 1973) [°C]
(ProProGly)7	6-7^c ° C.	
(ProProGly)10		24
